# According to patent US20150104392A1, “COMPOSITIONS, BIOMARKERS AND THEIR USE IN THE TREATMENT OF CANCER” (Aptose Biosciences Inc., priority 2013, published 2015):
# Tests used:
# KG-1 xenograft = assay: KG-1 AML xenograft model; format: in vivo, mice; details: 15 mg/kg iv, bid, 2T/wk; single agent
# Experimental: The anti-tumor activity of LOR-253HCl was evaluated in yet another in vivo animal model of human AML. Xenograft model mice for AML cell line KG-1 was generated with the same method as in Examples 9 and 10, and were treated with LOR-253HCl or control according to the following regime.
# LOR-253-15 mg/kg-iv, bid, 2T/wk-Day 1
# THP-1 xenograft = assay: THP-1 AML xenograft model; format: in vivo, mice; details: Group 2: single agent, i.v. Days 1, 2, 8, 9, 15, 16; IP Days 22-25, 29, 30
# Experimental: The anti-tumor activity of LOR-253HCl, as a single agent and in combination with azacitidine, was evaluated in yet another in vivo animal model of human AML. Xenograft model mice for AML cell line THP-1 was generated with the same method as in Examples 9 and 10, and were treated with LOR-253HCl alone or in combination with azacitidine, with azacitidine alone, or with a negative control vehicle, and tumor sizes were measured as described in Examples 9 and 10. The detailed treatment conditions are shown as follows, and the results are shown in FIG. 26. • Group 1 Control: received i.v. treatments with LOR-253 control vehicle (CV) on Days 1, 2, 8, 9, 15 &16; received subcutaneous (SC) treatments with Azacitidine control vehicle on Days 1, 4, 8, 11, 15, 18, 22, 25, 29 &32; and received intraperitoneal (IP) treatments with LOR-253-CV on Days 22, 23, 24, 25, 29&30. • Group-2-LOR-253: received i.v. treatments on Days 1, 2, 8, 9, 15 &16; received IP treatments on Days 22, 23, 24, 25, 29&30 • Group-3-Azacitidine: received SC treatments on Days 1, 4, 8, 11, 15, 18, 22, 25, 29 &32. • Group-4-Combination: received i.v. treatments with LOR-253 on Days 1, 2, 8, 9, 15 &16; received IP treatments with LOR-253 on Days 22, 23, 24 &25; and received SC-treatment with Azacitidine on Days 1, 4, 8, 11, 15, 18, 22 &25
# [1] = Pharmacokinetics, serum level after i.v. bolus; format: in vivo; details: CD-1 nude mice; i.v. bolus 1, 5 and 15 mg/kg
# Experimental: To study the pharmacokinetic (PK) […], CD-1 nude mice were treated by i.v. bolus injections of LOR-253HCl at 1, 5, and 15 mg/kg. The serum level of LOR-253 was measured.
# HL-60 xenograft = assay: HL-60 AML xenograft model; format: in vivo, athymic nude mice; details: 3 cycles
# Experimental: The human AML cell line HL-60 was implanted subcutaneously into athymic nude mice. Tumor-bearing mice were treated with LOR-253HCl alone or in combination with azacitidine, with azacitidine alone, or with a negative control vehicle. The detailed treatment conditions are as follows. • Group 1: Negative control group. LOR-253HCl control vehicle, 2×/day, 3 cycles of 2 consecutive days, 5 days between cycles, i.v., plus 1% D-mannitol every four days by s.c. injection • Group 2: Azacitidine (in 1% D-mannitol) at 10 mg/kg 1× on days 1, 4, 8, 11, 15 and 18 by subcutaneous (s.c.) injection • Group 3: LOR-253HCl at 15 mg/kg bid for 3 cycles, each cycle is 2 consecutive days of dosing per week with 5 days of non-dosing, i.v., n=9 (2T-5B) • Group 4: LOR-253HCl at 15 mg/kg 2×/day (bid) for 3 cycles, each cycle is 1 day of dosing per week with 6 days of non-dosing, i.v., n=9 (1T-6B) • Group 5: Combination of LOR-253 (2T-5B) and azacitidine. LOR-253HCl at 15 mg/kg bid for 3 cycles, each cycle is 2 consecutive days of dosing per week with 5 days of non-dosing, i.v., n=9 (2T-5B) plus azacitidine at 10 mg/kg 1× every four days by s.c. injection • Group 6: Combination of LOR-253 (1T-6B) and azacitidine. […]
# Tumor sizes were measured three times per week.
# [2] = system: advanced or metastatic solid tumours; assay: Open-label phase 1 study in patients with advanced or metastatic solid tumours; format: in vivo, human
# Experimental: Phase I: This was an open-label, phase 1 study to determine the maximum tolerated dose (MTD) or appropriate target dose if MTD not reached to identify the recommended phase 2 dose of LOR-253HCl in patients with advanced or metastatic solid tumours. In the first set of doses, LOR-253HCl was given in ascending doses until the maximum administered dose or appropriate target dose is reached. In the other set of doses, LOR-253HCl was given in ascending doses starting from 20 mg/m^2 until the maximum administered dose or appropriate target dose is reached. Patient as treated on LOR-253HCl for 2 cycles for the evaluation. • Other Name: No other names are used. • Study Type: Interventional • Study Design: Endpoint Classification: Safety Study • Intervention Model: Single Group Assignment • Masking: Open Label • Primary Purpose: Treatment • Official Title: Open-Label, Phase 1 Study of LOR-253HCl in Patients With Advanced or Metastatic Solid Tumours
# • To determine the maximum tolerated dose (MTD) or appropriate target dose if MTD not reached to identify the recommended phase 2 dose of LOR-253HCl in patients with advanced or metastatic solid tumours. [Time Frame: 8 weeks]
# • To characterize the safety profile of LOR-253HCl when administered to patients with advanced or metastatic solid tumours. [Time Frame: 8 weeks]
# • 1. Male or female 18 years of age or older. • 2. Histologically confirmed diagnosis of solid tumor for which no effective therapy is available or that is unresponsive to conventional therapy. • 3. Meet laboratory parameter requirements at study entry.
# • 1. Chemotherapy, radiotherapy, biologic therapy, immunotherapy or any other investigational drugs within 21 days of beginning study treatment with LOR-253HCl. • 2. A hematologic malignancy. • 3. A history of brain or other central nervous system metastases. • 4. Have a presence of a significant infection. • 5. Clinically significant autoimmune disease. • 6. Uncontrolled intercurrent illness. • 7. With iron or copper overload syndromes. • 8. Pregnancy or breast feeding.
# Kasumi-1 xenograft = assay: Kasumi-1 AML xenograft model; format: in vivo; details: 30 mg/kg (15 mg/kg twice per day) i.v., two consecutive days per week, four weeks
# Experimental: The anti-tumor activity of LOR-253HCl was evaluated in another in vivo animal model of human AML. The human AML cell line Kasumi-1 was implanted subcutaneously into athymic nude mice. Some tumor-bearing mice were treated with LOR-253HCl at 30 mg/kg (15 mg/kg twice per day) for two consecutive days per week for four weeks (the “LOR-253 treatment group”). LOR-253 was administered by intravenous (i.v.) bolus injection as the hydrochloric salt form (LOR-253-HCl) formulated in 20% Polyethylene Glycol 400, 10% Propylene Glycol, and 10% Solutol HS in 60% water.
# The major endpoint was to observe for tumor growth inhibition after treatment with LOR-253HCl and compare the anti-tumor effects of different dosing schedules. Tumor sizes were measured three times per week from day 10 after the tumor cell inoculation. Tumors were measured in three dimensions using calipers and the volume was expressed in millimeters cubed using the formula: V=0.5 a×b×c, where a, b, and c are the length, width, and height of the tumor, respectively. Mean tumor volumes+/−standard error (SE) were calculated from each measurement and then plotted in a standard graph to compare the anti-tumor efficacy of drug treatment to that of control (FIG. 20). Toxicity was assessed by clinical observations and by measurement of mouse body weight in grams twice per week over the course of the study. Mean body weights were calculated from each measurement and then plotted to compare body weight changes in the drug treatment group to that of control (FIG. 21).
smiles,measurement,setting,value
Cc1[nH]c2ccc(F)cc2c1-c1nc2c3cccnc3c3ncccc3c2[nH]1 [LOR-253HCl],tumor growth inhibition,KG-1 xenograft,significant tumor growth inhibition
same,tumor growth inhibition,THP-1 xenograft,inhibited growth of THP-1 tumors to about the same extent as or slightly more than azacitidine alone
same,serum level of LOR-253,[1],dose related increase
same,tumor growth inhibition,"HL-60 xenograft; Group 3: 15 mg/kg bid i.v., two consecutive days per week (2T-5B)",inhibited growth of HL-60 tumors to approximately the same extent as or slightly more than azacitidine alone
same,tumor growth inhibition,"HL-60 xenograft; Group 4: 15 mg/kg bid i.v., one day per week (1T-6B)",inhibited growth of HL-60 tumors to approximately the same extent as or slightly more than azacitidine alone
same,Most common AE and SAE,"[2]; N=27 patients, 7 dose levels",Fatigue and 1 case of reversible hypophosphatemia
same,Safety profile,"[2]; N=27 patients, 7 dose levels",Excellent Safety Profile
same,tumor response in individual patient (FIG. 12),"[2]; patient with NSCLC (poorly differentiated adenocarcinoma), extensive metastases, refractory",Tumor shrinkage
same,RECIST partial response,[2]; patients with advanced solid tumors,No RECIST PR
same,"Stable Disease, evaluable patients","[2]; patients with advanced solid tumors, dose-escalating, 7 dose levels",41%
same,body weight,Kasumi-1 xenograft,did not show body weight loss
same,overt signs of toxicity,Kasumi-1 xenograft,did not show other overt signs of toxicity
same,tumor growth inhibition vs vehicle control,Kasumi-1 xenograft; p=0.028 Student's t-test,statistically significantly increased inhibitory effect
